System: HIV-1
Experiment: IC50 determination of an anti-viral (Table 3)
Type: cell-based
Settings: Human immunodeficiency virus 1

Q: With `CCCCC#CCSc1ccccc1OCCCC` [BPHS] as the compound, how does the IC50 read?
A: The IC50 was 40 µM.
